Experimental data published in the NIST ThermoML archive (doi:10.1016/j.jct.2017.09.005).
Where “and” joins values, the source holds several entries; their conditions need not be identical. Identical values can stand only once. Numbers after ± are expanded uncertainties.

Legend:
[1] = for vapor or sublimation pressure: Twin ebulliometer; for molar entropy: 101.33 kPa, Small sample (50 mg) DSC; for Critical density: DSC; for Critical temperature: DTA
[2] = molar heat capacity at saturation pressure; conditions: Liquid, Small sample (50 mg) DSC

Cc1c[nH]c(C)c1 [2,4-dimethyl-1H-pyrrole]
[1]
Conditions	mass density [kg/m3]
323.14 K, Liquid, Vibrating tube method	895.5 ± 1.8
348.13 K, Liquid, Vibrating tube method	874.8 ± 1.8
373.12 K, Liquid, Vibrating tube method	853 ± 1.7
398.12 K, Liquid, Vibrating tube method	830.6 ± 1.7
423.11 K, Liquid, Vibrating tube method	807.2 ± 1.6
448.11 K, Liquid, Vibrating tube method	781.3 ± 1.6
645.3 K, Gas, From heat capacities measured by DSC	159 ± 16
648.6 K, Gas, From heat capacities measured by DSC	220 ± 22
649 K, Gas, From heat capacities measured by DSC	248 ± 25
650 K, Liquid, From heat capacities measured by DSC	413 ± 41
656.5 K, Liquid, From heat capacities measured by DSC	292 ± 29

[1], Liquid
Conditions	molar entropy [J/K/mol]	vapor or sublimation pressure
338.25 K	–	1.995 ± 0.008 kPa
343.72 K	–	2.666 ± 0.008 kPa
351.75 K	–	4 ± 0.008 kPa
357.76 K	–	5.337 ± 0.008 kPa
366.62 K	–	7.992 ± 0.008 kPa
373.28 K	–	10.66 ± 0.008 kPa
378.68 K	–	13.34 ± 0.009 kPa
384.24 K	–	16.66 ± 0.009 kPa
388.88 K	–	19.93 ± 0.01 kPa
394.96 K	–	25.02 ± 0.011 kPa and 25.01 ± 0.01 kPa
401.09 K	–	31.17 ± 0.012 kPa
407.25 K	–	38.57 ± 0.013 kPa
413.43 K	–	47.37 ± 0.015 kPa
419.66 K	–	57.81 ± 0.018 kPa
425.98 K	–	70.24 ± 0.02 kPa
432.21 K	–	84.53 ± 0.023 kPa
438.54 K	–	101.33 ± 0.025 kPa
440 K	306.38 ± 7.1	–
444.91 K	–	120.8 ± 0.03 kPa
451.31 K	–	143.27 ± 0.03 kPa
457.75 K	–	169.05 ± 0.04 kPa
460 K	317.25 ± 7.4	–
464.23 K	–	198.53 ± 0.04 kPa
470.74 K	–	232.06 ± 0.05 kPa
477.28 K	–	270.07 ± 0.05 kPa
480 K	327.92 ± 7.6	–
500 K	338.4 ± 7.9	–
520 K	348.69 ± 8.1	–
540 K	358.8 ± 8.3	–
560 K	368.76 ± 8.6	–
580 K	378.61 ± 8.8	–
600 K	388.45 ± 9	–

Conditions	Critical density [kg/m3]	Critical temperature [K]	molar heat capacity [J/K/mol]
[1], Liquid	285.8 ± 29	653 ± 3	–
[2], 440 K	–	–	241.31 ± 4.2
[2], 460 K	–	–	247.84 ± 4.3
[2], 480 K	–	–	253.77 ± 4.4
[2], 500 K	–	–	259.54 ± 4.5
[2], 520 K	–	–	265.15 ± 4.6
[2], 540 K	–	–	270.8 ± 4.7
[2], 560 K	–	–	276.99 ± 4.8
[2], 580 K	–	–	284.79 ± 4.9
[2], 600 K	–	–	297.37 ± 5.1

Cc1ccc(C)[nH]1 [2,5-dimethyl-1H-pyrrole]
[1]
Conditions	mass density [kg/m3]
323.14 K, Liquid, Vibrating tube method	910.8 ± 1.8
348.13 K, Liquid, Vibrating tube method	890.3 ± 1.8
373.12 K, Liquid, Vibrating tube method	867.7 ± 1.7
398.12 K, Liquid, Vibrating tube method	843.9 ± 1.7
423.11 K, Liquid, Vibrating tube method	819.6 ± 1.6
448.11 K, Liquid, Vibrating tube method	793.5 ± 1.6
473.11 K, Liquid, Vibrating tube method	766.5 ± 1.5
498.11 K, Liquid, Vibrating tube method	738.1 ± 1.5
508.11 K, Liquid, Vibrating tube method	725.6 ± 1.5
650 K, Gas, From heat capacities measured by DSC	144 ± 14
660.8 K, Gas, From heat capacities measured by DSC	257 ± 26
661.5 K, Liquid, From heat capacities measured by DSC	334 ± 33
661.7 K, Liquid, From heat capacities measured by DSC	299 ± 30

[1], Liquid
Conditions	molar entropy [J/K/mol]	vapor or sublimation pressure [kPa]
341.46 K	–	1.997 ± 0.008
354.8 K	–	3.994 ± 0.008
360.76 K	–	5.333 ± 0.008
369.58 K	–	8.007 ± 0.008
376.17 K	–	10.67 ± 0.009
380 K	263.56 ± 6.1	–
381.49 K	–	13.34 ± 0.009
386.98 K	–	16.66 ± 0.01
391.56 K	–	19.93 ± 0.011
397.58 K	–	25.02 ± 0.012
400 K	275.4 ± 6.4	–
403.63 K	–	31.18 ± 0.014
409.71 K	–	38.56 ± 0.016
415.81 K	–	47.35 ± 0.019
420 K	286.97 ± 6.7	–
421.96 K	–	57.8 ± 0.022
428.14 K	–	70.1 ± 0.025
434.36 K	–	84.53 ± 0.029
440 K	298.28 ± 6.9	–
440.62 K	–	101.35 ± 0.034
446.89 K	–	120.78 ± 0.04
453.2 K	–	143.21 ± 0.04
459.55 K	–	169.03 ± 0.05
460 K	309.34 ± 7.2	–
465.94 K	–	198.49 ± 0.06
472.36 K	–	232.03 ± 0.07
478.82 K	–	270.08 ± 0.08
480 K	320.16 ± 7.4	–
500 K	330.75 ± 7.7	–
520 K	341.13 ± 7.9	–
540 K	351.34 ± 8.2	–
560 K	361.4 ± 8.4	–
580 K	371.4 ± 8.6	–
600 K	381.43 ± 8.9	–

Conditions	Critical density [kg/m3]	Critical temperature [K]	molar heat capacity [J/K/mol]
[1], Liquid	288.6 ± 29	662 ± 2	–
[2], 380 K	–	–	227.58 ± 3.9
[2], 400 K	–	–	234.06 ± 4.1
[2], 420 K	–	–	240.2 ± 4.2
[2], 440 K	–	–	246 ± 4.3
[2], 460 K	–	–	251.53 ± 4.4
[2], 480 K	–	–	256.87 ± 4.4
[2], 500 K	–	–	262.15 ± 4.5
[2], 520 K	–	–	267.56 ± 4.6
[2], 540 K	–	–	273.45 ± 4.7
[2], 560 K	–	–	280.39 ± 4.9
[2], 580 K	–	–	289.72 ± 5
[2], 600 K	–	–	303.59 ± 5.3

Cn1cccc1 [N-methylpyrrole]
[1]
Conditions	mass density [kg/m3]
323.14 K, Liquid, Vibrating tube method	879.5 ± 1.8
348.13 K, Liquid, Vibrating tube method	854.2 ± 1.7
373.12 K, Liquid, Vibrating tube method	828.2 ± 1.7
398.12 K, Liquid, Vibrating tube method	800.7 ± 1.6
423.11 K, Liquid, Vibrating tube method	772.1 ± 1.5
448.11 K, Liquid, Vibrating tube method	741.1 ± 1.5
582.9 K, Gas, From heat capacities measured by DSC	137 ± 14
592 K, Gas, From heat capacities measured by DSC	201 ± 20
592.7 K, Gas, From heat capacities measured by DSC	220 ± 22
593.2 K, Liquid, From heat capacities measured by DSC	382 ± 38
596.1 K, Gas, From heat capacities measured by DSC	257 ± 26
596.2 K, Liquid, From heat capacities measured by DSC	328 ± 33
596.5 K, Liquid, From heat capacities measured by DSC	337 ± 34

[1], Liquid
Conditions	molar entropy [J/K/mol]
360 K	230.1 ± 5.3
380 K	239.15 ± 5.6
400 K	248.02 ± 5.8
420 K	256.74 ± 6
440 K	265.36 ± 6.2
460 K	273.88 ± 6.4
480 K	282.3 ± 6.6
500 K	290.66 ± 6.8
520 K	298.96 ± 7

Conditions	Critical density [kg/m3]	Critical temperature [K]	molar heat capacity [J/K/mol]
[1], Liquid	299.8 ± 30	597 ± 2	–
[2], 360 K	–	–	164.66 ± 2.9
[2], 380 K	–	–	170.08 ± 2.9
[2], 400 K	–	–	175.89 ± 3
[2], 420 K	–	–	182.02 ± 3.2
[2], 440 K	–	–	188.36 ± 3.3
[2], 460 K	–	–	194.81 ± 3.4
[2], 480 K	–	–	201.34 ± 3.5
[2], 500 K	–	–	208.14 ± 3.6
[2], 520 K	–	–	215.72 ± 3.7

c1cc[nH]c1 [pyrrole]
[1]
Conditions	mass density [kg/m3]
323.14 K, Liquid, Vibrating tube method	943.9 ± 1.9
348.13 K, Liquid, Vibrating tube method	921.2 ± 1.8
373.12 K, Liquid, Vibrating tube method	897.8 ± 1.8
398.12 K, Liquid, Vibrating tube method	873.5 ± 1.7
423.11 K, Liquid, Vibrating tube method	847.6 ± 1.7
448.11 K, Liquid, Vibrating tube method	820.2 ± 1.6
468.11 K, Liquid, Vibrating tube method	796.1 ± 1.6
604.6 K, Gas, From heat capacities measured by DSC	104 ± 11
623.7 K, Gas, From heat capacities measured by DSC	148 ± 17
632.4 K, Gas, From heat capacities measured by DSC	220 ± 28
633.5 K, Liquid, From heat capacities measured by DSC	395 ± 40
635.4 K, Liquid, From heat capacities measured by DSC	329 ± 33
637.8 K, Gas, From heat capacities measured by DSC	271 ± 33

[1], Liquid
Conditions	molar entropy [J/K/mol]
360 K	181.95 ± 4.2
380 K	189.82 ± 4.4
400 K	197.54 ± 4.6
420 K	205.12 ± 4.8
440 K	212.58 ± 4.9
460 K	219.91 ± 5.1
480 K	227.13 ± 5.3
500 K	234.23 ± 5.4
520 K	241.22 ± 5.6
540 K	248.11 ± 5.8

Conditions	Critical density [kg/m3]	Critical temperature [K]	molar heat capacity [J/K/mol]
[1], Liquid	314.2 ± 31	638.5 ± 2	–
[2], 360 K	–	–	143.21 ± 2.5
[2], 380 K	–	–	148.11 ± 2.6
[2], 400 K	–	–	152.99 ± 2.7
[2], 420 K	–	–	157.84 ± 2.7
[2], 440 K	–	–	162.62 ± 2.8
[2], 460 K	–	–	167.28 ± 2.9
[2], 480 K	–	–	171.79 ± 3
[2], 500 K	–	–	176.14 ± 3.1
[2], 520 K	–	–	180.48 ± 3.1
[2], 540 K	–	–	185.06 ± 3.2
